Measurements published in ChEMBL document CHEMBL5038649, “Chemical Space Expansion of Flavonoids: Induction of Mitotic Inhibition by Replacing Ring B with a 10π-Electron System, Benzo[b]thiophene” (J Nat Prod, 2022).

What was measured:
Format in all cases: functional, cell-based
KB = assay: Antiproliferative activity against human KB cells assessed as reduction in cell viability after 72 hrs by SRB assay
MCF7 = assay: Antiproliferative activity against human MCF7 cells assessed as reduction in cell viability after 72 hrs by SRB assay; settings: MCF7, 72 h
A549 = assay: Antiproliferative activity against human A549 cells assessed as reduction in cell viability after 72 hrs by SRB assay; settings: A549, 72 h
[1] = Antiproliferative activity against human KB-VIN cells assessed as reduction in cell viability after 72 hrs by SRB assay; settings: KBVIN
MDA-MB-231 = assay: Antiproliferative activity against human MDA-MB-231 cells assessed as reduction in cell viability after 72 hrs by SRB assay; settings: MDA-MB-231, 72 h

Structure (SMILES)	IC50 (KB)	IC50 (MCF7)	IC50 (A549)	IC50 [1]	IC50 (MDA-MB-231)
O=C(/C=C/c1ccc(Cl)cc1)c1csc2ccccc12	8.1 µM	9.7 µM	6.6 µM	5.5 µM	7.3 µM
O=C1/C(=C/c2csc3ccccc23)Oc2ccccc21	> 10 µM	> 10 µM	> 10 µM	> 10 µM	> 10 µM
O=c1c(-c2csc3ccccc23)coc2ccccc12	> 10 µM	> 10 µM	> 10 µM	> 10 µM	> 10 µM
O=C(/C=C/c1ccccc1)c1c(O)ccc2ccccc12	> 10 µM	> 10 µM	> 10 µM	> 10 µM	> 10 µM
COc1ccc(O)c(C(=O)/C=C/c2csc3ccccc23)c1	0.64 µM	0.75 µM	0.58 µM	0.4 µM	0.76 µM
COc1c(OC(C)C)cc2c(c1OC(C)C)C(=O)/C(=C/c1csc3ccccc13)O2	> 10 µM	> 10 µM	> 10 µM	> 10 µM	> 10 µM
COc1ccc(OC)c(C(=O)/C=C/c2csc3ccccc23)c1	4.6 µM	5.5 µM	4.1 µM	3.7 µM	5.4 µM
O=c1c(-c2ccccc2)coc2ccccc12 [ISOFLAVONE]	> 10 µM	> 10 µM	> 10 µM	> 10 µM	> 10 µM
COc1ccc(C(=O)/C=C/c2csc3ccccc23)c(O)c1	5.6 µM	7.5 µM	5.6 µM	4.8 µM	7.4 µM
COc1c(OC(C)C)cc2oc(-n3cncn3)c(-c3ccccc3)c(=O)c2c1OC(C)C	> 10 µM	> 10 µM	> 10 µM	> 10 µM	> 10 µM
COc1c(O)cc2occ(-c3ccccc3)c(=O)c2c1O	> 10 µM	> 10 µM	> 10 µM	> 10 µM	> 10 µM
O=C1/C(=C/c2ccccc2)Oc2ccccc21 [(Z)-AURONE]	> 10 µM	> 10 µM	> 10 µM	> 10 µM	> 10 µM
COc1c(OC(C)C)cc2occ(-c3ccccc3)c(=O)c2c1O	> 10 µM	> 10 µM	> 10 µM	> 10 µM	> 10 µM
COc1c(OC(C)C)cc2ccc(-c3cc(=O)c4ccccc4o3)cc2c1OC(C)C	> 10 µM	> 10 µM	> 10 µM	8.2 µM	> 10 µM
O=C(/C=C/c1csc2ccccc12)c1cc2c(cc1O)OCO2	5.1 µM	6.9 µM	4.8 µM	2.1 µM	6.2 µM
COc1c(O)cc2occ(-c3csc4ccccc34)c(=O)c2c1O	> 10 µM	> 10 µM	> 10 µM	> 10 µM	> 10 µM
COc1cc(O)c(C(=O)/C=C/c2csc3ccccc23)c(OC)c1OC	6.7 µM	7.7 µM	5.3 µM	4.9 µM	6.9 µM
CCOc1c(OC)cc2occ(-c3csc4ccccc34)c(=O)c2c1OC	4 µM	4 µM	4.8 µM	0.84 µM	5.2 µM
CC(C)Oc1ccc(/C=C/C(=O)c2csc3ccccc23)cc1	> 10 µM	> 10 µM	> 10 µM	> 10 µM	> 10 µM
COc1c(OC(C)C)cc2occ(-c3ccccc3)c(=O)c2c1OC(C)C	> 10 µM	> 10 µM	> 10 µM	> 10 µM	> 10 µM
COc1ccc(O)c(/C=C/C(=O)c2csc3ccccc23)c1	5 µM	5.9 µM	4.7 µM	4.4 µM	5.4 µM
CCOc1cc2occ(-c3csc4ccccc34)c(=O)c2c(OCC)c1OC	4.2 µM	3.1 µM	2.6 µM	0.67 µM	1 µM
COc1cc2c(=O)c(-c3csc4ccccc34)coc2c(OC)c1OC	> 10 µM	> 10 µM	> 10 µM	> 10 µM	> 10 µM
COc1cc2occ(-c3csc4ccccc34)c(=O)c2c(OC)c1O	> 10 µM	> 10 µM	> 10 µM	> 10 µM	> 10 µM
COc1cccc(/C=C/C(=O)c2csc3ccccc23)c1	5.7 µM	7.5 µM	5.5 µM	5.4 µM	6.2 µM
O=C(/C=C/c1ccccc1)c1cccc2ccccc12	6.2 µM	9.8 µM	5 µM	5.4 µM	6 µM

Structure (SMILES)	IC50 (KB)	IC50 (MCF7)	IC50 (A549)	IC50 [1]	IC50 (MDA-MB-231)
CCOc1ccc(O)c(C(=O)/C=C/c2csc3ccccc23)c1	5.8 µM	7.5 µM	5.4 µM	4.1 µM	6.7 µM
O=C(/C=C/c1csc2ccccc12)c1cc(Cl)cc(Cl)c1O	4.6 µM	5.8 µM	3.7 µM	0.83 µM	3.3 µM
O=C(/C=C/c1ccccc1)c1csc2ccccc12	6.3 µM	> 10 µM	9.1 µM	5.8 µM	6.7 µM
O=C(/C=C/c1cc2ccccc2s1)c1cc(Cl)cc(Cl)c1O	7.8 µM	9.9 µM	6.9 µM	5.8 µM	7.5 µM
COc1c(OC(C)C)cc2c(c1O)C(=O)/C(=C/c1csc3ccccc13)O2	> 10 µM	> 10 µM	> 10 µM	> 10 µM	> 10 µM
O=C(/C=C/c1c[nH]c2ccccc12)c1cc(Cl)ccc1O	0.91 µM	5.7 µM	0.75 µM	0.8 µM	0.99 µM
COc1cc2occ(-c3csc4ccccc34)c(=O)c2cc1OC	> 10 µM	> 10 µM	> 10 µM	> 10 µM	> 10 µM
O=C(/C=C/c1csc2ccccc12)c1cc(Br)ccc1O	0.76 µM	1.04 µM	0.66 µM	0.47 µM	0.84 µM
O=C(/C=C/c1csc2ccccc12)c1cc(F)ccc1O	7.4 µM	> 10 µM	7.1 µM	5.4 µM	8.4 µM
COc1c(OC(C)C)cc2oc(-n3cncn3)c(-c3csc4ccccc34)c(=O)c2c1OC(C)C	> 10 µM	> 10 µM	> 10 µM	5 µM	> 10 µM
O=C(/C=C/c1csc2ccccc12)c1ccc2ccccc2c1O	> 40 µM	> 10 µM	7.2 µM	8.2 µM	> 10 µM
CC(C)Oc1ccc(O)c(C(=O)/C=C/c2csc3ccccc23)c1	10 µM	6.6 µM	6.4 µM	5.6 µM	8.5 µM
COc1c(OC(C)C)cc2occ(-c3csc4ccccc34)c(=O)c2c1O	> 10 µM	> 10 µM	7.2 µM	> 10 µM	> 10 µM
COc1cc(O)c(C(=O)/C=C/c2csc3ccccc23)cc1OC	0.52 µM	0.71 µM	0.45 µM	0.27 µM	0.69 µM
CC(C)=CCc1cc(C(=O)/C=C/c2csc3ccccc23)c(O)cc1O	7.6 µM	7.4 µM	6 µM	5.4 µM	8.9 µM
O=C(/C=C/c1csc2ccccc12)c1cccc(Cl)c1	> 10 µM	> 10 µM	> 10 µM	> 10 µM	> 10 µM
COc1ccc(/C=C/C(=O)c2csc3ccccc23)cc1OC	4.9 µM	9.4 µM	5.2 µM	4.7 µM	6.6 µM
O=C(/C=C/c1csc2ccccc12)c1cc(Br)cc(Br)c1O	4.8 µM	5.8 µM	4.2 µM	1 µM	4.3 µM
COc1ccc(/C=C/C(=O)c2csc3ccccc23)cc1	> 10 µM	> 10 µM	> 10 µM	8.1 µM	> 10 µM
COc1c(OC(C)C)cc2occ(-c3csc4ccccc34)c(=O)c2c1OC(C)C	> 10 µM	> 10 µM	8.9 µM	7.3 µM	> 10 µM
O=C(/C=C/c1cc2ccccc2s1)c1cc(Br)ccc1O	> 10 µM	> 10 µM	> 10 µM	> 10 µM	> 10 µM
O=C(/C=C/c1ccccc1)c1ccccc1 [CHALCONE]	> 10 µM	> 10 µM	> 10 µM	> 10 µM	> 10 µM
O=C(/C=C/c1csc2ccccc12)c1ccccc1O	6.2 µM	6.6 µM	5.3 µM	5.4 µM	5.3 µM
Cc1ccc(O)c(C(=O)/C=C/c2csc3ccccc23)c1	4.9 µM	7.8 µM	4.8 µM	4.3 µM	6 µM
O=C(/C=C/c1cc2ccccc2s1)c1cc(Cl)ccc1O	> 10 µM	> 10 µM	> 10 µM	> 10 µM	> 10 µM
COc1ccc(O)c(C(=O)/C=C/c2cc3ccccc3s2)c1	> 10 µM	> 10 µM	> 10 µM	> 10 µM	> 10 µM
